Laboratory results taken from US12239624B2, “Glyceryl tris (beta-hydroxybutyrate) and neuronal transient ischemic attacks” (NeuroEnergy Ventures, Inc., priority 2019, dated 2025).

Conditions: in vivo

With `CC(O)CC(=O)OCC(COC(=O)CC(C)O)OC(=O)CC(C)O` (stereo not drawn) [GTβHB, Glyceryl Tris (Beta-HydroxyButyrate)] the “time for beta-hydroxybutyrate and acetoacetate from GTβHB to return to pre-administration levels” value was no more than 24 h and the “period within which GTβHB is cleared by the body” value (po) was no more than 24 h.
